{"source": "ChEMBL document CHEMBL1153133", "about": "“2,4-Diaminopyrimidine MK2 inhibitors. Part I: Observation of an unexpected inhibitor binding mode” (Bioorg Med Chem Lett, 2010)", "key": {"[1]": {"biological_target": "T1, MAP kinase-activated protein kinase 2 (Homo sapiens, UniProt P49137)", "T1 sequence (P49137 whole entry)": "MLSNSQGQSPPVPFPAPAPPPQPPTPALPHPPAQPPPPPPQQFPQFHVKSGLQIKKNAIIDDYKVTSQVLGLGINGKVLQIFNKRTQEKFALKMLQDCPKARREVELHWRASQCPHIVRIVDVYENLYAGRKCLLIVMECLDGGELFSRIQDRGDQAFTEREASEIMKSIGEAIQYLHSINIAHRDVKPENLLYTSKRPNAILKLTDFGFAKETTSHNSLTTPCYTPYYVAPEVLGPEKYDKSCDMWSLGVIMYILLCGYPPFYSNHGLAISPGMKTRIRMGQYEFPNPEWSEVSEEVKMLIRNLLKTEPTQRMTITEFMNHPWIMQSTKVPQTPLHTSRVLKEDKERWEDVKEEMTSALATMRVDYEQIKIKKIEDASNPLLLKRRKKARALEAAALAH", "experiment": "Inhibition of human recombinant phospho-MK2 (36-400) by HTRF assay"}, "[2]": {"biological_target": "T1, MAP kinase-activated protein kinase 2", "experiment": "Displacement of [8-3H]ATP from human recombinant MK2 (36-400) by scintillation proximity assay"}, "[3]": {"biological_target": "T1, MAP kinase-activated protein kinase 2", "experiment": "Displacement of [8-3H]ATP from human recombinant MK2 (41-364) by scintillation proximity assay"}}, "note": "pIC50: −log10 of the molar value.", "data": [{"smiles": "Nc1ncnc2c1ncn2[C@@H]1O[C@H](COP(=O)(O)OP(=O)(O)OP(=O)(O)O)[C@@H](O)[C@H]1O", "note": "(single isomer, unassigned) [ADENOSINE TRIPHOSPHATE]", "values": [{"measurement": "pIC50", "setting": "[1]", "value": 5.55}, {"measurement": "pIC50", "setting": "[2]", "value": 5.20}, {"measurement": "pIC50", "setting": "[3]", "value": 4.92}]}]}
